{"source": "patent US20230391727A1", "about": "“ANALOGUES OF PENTAMIDINE AND METHODS FOR TREATING INFECTIONS” (Auransa Inc., priority 2020, published 2023)", "key": {"A. baumannii ATCC 17978": {"test_system": "A. baumannii ATCC 17978", "assay": "Checkerboard assay with novobiocin (FIGS. 2, 3, 5, 6)", "assay_type": "cell-based, Acinetobacter baumannii", "source_text": "Novobiocin is an anti-staphylococcal drug, but with limited use. The oral form of novobiocin drug has since been withdrawn from the market due to lack of efficacy. This antibiotic is often used to treat Staphylococcus aureus infection, particularly methicillin resistant S. aureus “MRSA”."}, "S. aureus VRS-2": {"test_system": "S. aureus VRS-2", "assay": "S. aureus VRS-2 peritonitis infection model", "assay_type": "in vivo, female ICR mice", "protocol": "The efficacy of compound 3 was evaluated in the S. aureus VRS-2 peritonitis infection model. The test article, compound 3 at 0.1, 0.3 and 1 mg/kg, was intraperitoneally (IP) administered twice at 2 and 16 h after infection; as well as once at 2 mg/kg at 2 h post-infection. The control reference agent, linezolid at 50 mg/kg, was orally (PO) administered once at 1 h post-infection. […] All animals in the vehicle group succumbed to infection between Day 1 to Day 2, resulting in 100% mortality, and a mean 15 h survival time. […] In the compound 3 at 1 mg/kg IP BID dose group, one out of eight animals survived till Day 7 of the study period, resulting in 13% survival rate, and a mean 33 h survival time.\nFor efficacy testing, the 0.4 mg/mL compound 3 solution was prepared by dissolving 1.21 mg of compound 3, corresponding to active ingredient of 1.02 mg with a correction factor of 1.19, in 2.55 mL of WFI. The 0.4 mg/mL compound 3 working solution was further diluted with WFI to generate three lower dosing solutions of 0.2, 0.06 and 0.02 mg/mL. All dosing solutions were soluble and colorless.\nPDS supplied vancomycin and linezolid as reference controls for both MIC and in vivo studies. […] The 3.2 mg/mL linezolid 50× stock solution was prepared by dissolving 1.0 mg of linezolid in 0.313 mL of DMSO. Both solutions were colorless and soluble. For efficacy testing, one tablet of linezolid, at 600 mg, was dissolved in 12 mL of 1% Tween 80 in saline (0.9% NaCl) to generate a 50 mg/mL of stock solution. The 50 mg/mL linezolid stock solution was further diluted with 1% Tween 80 in 0.9% NaCl to generate the dosing solution of 5 mg/mL. Both solutions were insoluble with white color.\nThe S. aureus strain VRS-2 peritonitis infection model was performed with immunocompetent female ICR mice, weighing 22±2 g. All animals were specific pathogen free. The PDS standard protocol for preparing S. aureus cultures for mouse infection studies was followed. A 0.2 mL aliquot of a single-use glycerol stock (at −80° C.) was used to seed […] heart infusion (BHI) and then incubated at 35-37° C. with shaking (250 rpm) for 8 h. Bacterial cells in the 20 mL was pelleted by centrifugation (3,500×g) for 15 minutes, and then re-suspended in 10 mL cold phosphate buffer saline (PBS). The optical density, OD620 nm, was measured and used to guide dilution. The PBS suspensions were stored on ice for no more than 1 h prior to animal inoculation. The dilutions were performed by 1:1 dilution of BHI broth containing hog gastric mucin to obtain the target inoculum density, 1×10^8 CFU/mouse, per 0.5 mL with 5% mucin (final concentration). The actual colony count was determined by plating dilutions to nutrient agar (NA) plates followed by 20-24 h incubation at 35-37° C.\nOn Day 0, animals were infected with bacterial suspension with 5% mucin by intraperitoneal injection. The actual inoculum was 1.93×10^8 CFU/mouse with a target inoculum of 1×10^8 CFU/mouse in the peritonitis infection model. Test article, compound 3, was formulated in WFI and intraperitoneally (IP) administered with the dose schedule and concentrations indicated in the study design. Doses were administered once at 2 h post-infection or twice (BID) at 2 and 16 h post-infection. The animals were monitored for survival up to 7 days, twice daily (AM 9:00/PM 17:00). […]\nAnimals were monitored for mortality twice daily (AM 9:00/PM 17:00) for 7 days after infection. […]"}, "[1]": {"test_system": "human primary hepatocytes", "assay": "alamarBlue cell viability, cytotoxicity in hepatocytes", "assay_type": "cell-based", "conditions": "24 hours", "protocol": "Compound 3 was tested for cytotoxicity in human primary hepatocytes in duplicate at 8 concentrations ranging from 0.03 μM to 100 μM (0.013 μg/ml to 44.95 μg/ml ).\nThis assay was performed using cryopreserved human primary hepatocytes (PHH). The cryopreserved PHH were seeded in collagen I coated 96-well plates in plating medium. The medium was replaced with incubation medium 2-4 hours after seeding. After overnight culture, test compound (compound 3) (0.03, 0.1, 0.3, 1, 3, 10, 30, 100 μM), reference compound (chlorpromazine) and vehicle control (1% DMSO) were added, and incubated with the cells for 24 hours followed by the addition of the alamarBlue cell viability reagent. The plates are analyzed for fluorescent intensity after alamarBlue addition. % of cell viability (% of control) was calculated by comparing the background (wells without cells) corrected fluorescent intensity in the compound treated wells and vehicle control treated wells. IC50 values were determined by non-linear regression analysis of the concentration-response curves using the Hill equation. Testing was done in duplicate."}, "[2]": {"assay": "Pharmacokinetic analysis, tissue and plasma exposure", "conditions": "male C57BL6 mice, 10 mg/kg subcutaneous administration; kidney, liver, and lung", "experimental": "To determine whether target concentrations/exposures of these compounds can be achieved at various target organs, exposures of compound 3 were tested in kidney, liver, spleen, lung peritoneal fluid and plasma of male C57BL6 mice (5 mice per group). Compound 3 was dosed at 10 mg/kg subcutaneously with each group having samples taken at time indicated (FIG. 7)."}, "K. pneumoniae": {"test_system": "K. pneumoniae", "assay": "Checkerboard assay with rifampicin (FIG. 1)", "assay_type": "cell-based, Klebsiella pneumoniae", "source_text": "As control, pentamidine was used for its synergistic, indifferent or antagonistic interaction with rifampicin in similar conditions. […] In FIG. 1, dark wells indicated growth inhibition of K. pneumoniae and corresponding antibacterial activities of these compounds."}}, "note": "Values joined by “and” are separate entries in the source; they are usually repeats but may differ in a detail not shown here. Identical values can stand only once."}
{"molecule": "N=C(N)c1ccc(CC[C@H]2CCC[C@@H](CCc3ccc(C(=N)N)cc3)C2)cc1", "note": "[Compound 3, 4,4′-(2,2′-((1R,3S)-cyclohexane-1,3-diyl)bis(ethane-2,1-diyl))dibenzimidamide]", "values": [{"measurement": "synergistic effect with novobiocin", "setting": "A. baumannii ATCC 17978", "result": "clear synergistic effect"}, {"measurement": "synergy with novobiocin as compared to pentamidine with novobiocin", "setting": "A. baumannii ATCC 17978", "result": "superior synergy"}, {"measurement": "MIC", "setting": "A. baumannii ATCC 17978; Acinetobacter baumannii, ATCC17978, substance alone", "result": 33.2, "unit": "µM"}, {"measurement": "mean survival time", "setting": "S. aureus VRS-2; 1 mg/kg IP BID (2 and 16 h after infection)", "result": 33, "unit": "h"}, {"measurement": "survival rate", "setting": "S. aureus VRS-2; 1 mg/kg IP BID (2 and 16 h after infection), Day 7", "result": 13, "unit": "%"}, {"measurement": "mortality", "setting": "S. aureus VRS-2; 0.1 and 0.3 mg/kg IP BID, and single dose of 2 mg/kg", "result": 100, "unit": "%"}, {"measurement": "effect on cell viability", "setting": "[1]; 10 μM (4.49 μg/ml) and lower concentrations", "result": "No inhibition on cell viability"}, {"measurement": "effect on cell viability", "setting": "[1]; 30 uM and 100 μM (13.48 μg/ml and 44.95 μg/ml)", "result": "significant effects on cell viability"}, {"measurement": "IC50", "setting": "[1]; Hepatocyte, human primary hepatocytes", "result": "25 µM and 11.2 µg/mL"}, {"measurement": "exposure relative to target concentrations for pharmacology", "setting": "[2]", "result": "target concentrations for pharmacology could be achieved"}, {"measurement": "synergistic effect with rifampicin, growth inhibition, compared to pentamidine", "setting": "K. pneumoniae", "result": "superior synergistic effects with rifampicin than pentamidine with rifampicin"}]}
